Entries after “also recorded” stand apart in the source; their conditions may differ.
Columns and labels:
Type in all cases: cell-based, human
MDA-MB231 = settings: 3 h
Melanoma ME 115 cells = test: Disruption of melanoma cell adhesion, pan-cadherin immunostaining; settings: 500 μg/mL, 48 hours
Procedure: Melanoma ME 115 cells (kindly provided by Meenhard Herlyn, Wistar Institute, Philadelphia, Pa.) were plated on glass coverslips and cultured for 24 hours in 50% keratinocyte growth medium (Clonetics, San Diego, Calif.) and 50% L15. Fresh medium containing the cyclic peptides (final concentration 500 μg/mL media) N-Ac-CHAVC-NH2 (SEQ ID NO:10) or N-Ac-CHGVC-NH2 (SEQ ID NO:20) was then added. Following 24 hours of culture in the presence of the peptides, the medium was removed and fresh medium containing the peptides was added. The cells were fixed 24 hours later with cold methanol and stored in phosphate buffered saline (PBS).
Coverslips were blocked for 1 hour in 3% ovalbumin/PBS and incubated for a further 1 hour in the presence of rabbit pan-cadherin antibody (Sigma Chemical Co., St. Louis, Mo.) diluted 1:500. Primary and secondary antibodies were diluted in PBS containing 6% normal goat serum. Following incubation in the primary antibody, coverslips were washed 3 times for 5 minutes each in PBS and incubated for 1 hour in goat anti-rabbit immunoglobulin G conjugated to fluorescein (Kiekegard and Perry, South San Francisco, Calif.) diluted 1:100. Following a further wash in PBS (3×5 minutes) coverslips were mounted in Vectashield (Vector Labs, Burlingame, Calif.) and viewed with a Zeiss infinity corrected microscope.

HMVEC = settings: 3 h
Procedure: (§1) N-Ac-CHAVC-NH2 (SEQ ID NO:10) and the control peptide N-Ac-CHGVC-NH2 (SEQ ID NO:20) were evaluated for possible cytotoxic effects on human microvascular endothelial (HMVEC; Clonetics), human umbilical vein endothelial (HUVEC; ATCC #CRL-1730), IAFp2 (human fibroblast cell line; Institute Armand-Frapier, Montreal, Quebec), WI-38 (human fibroblast cell line; ATCC #CCL-75), MDA-MB231 (human breast cancer cell line; ATCC #HTB-26), and PC-3 (human prostate cancer cell line; ATCC #CRL-1435) cells utilizing the MTT assay (Plumb et al., Cancer Res. 49:4435-4440, 1989). Neither of the peptides was cytotoxic at concentrations up to and including 100 μM. Similarly, neither of the peptides was capable of inhibiting the proliferation of the above cell lines at concentrations up to 100 μM, as judged by ^3H-thymidine incorporation assays.

IAFp2 = settings: 3 h
Procedure: as §1

PC-3 = settings: 3 h
Procedure: as §1

CC(=O)N[C@H]1CSSC[C@@H](C(N)=O)NC(=O)[C@H](C(C)C)NC(=O)[C@H](C)NC(=O)[C@H](Cc2c[nH]cn2)NC1=O [N-Ac-CHAVC-NH2, N-Ac-Cys-His-Ala-Val-Cys-NH2]
IC50 (MDA-MB231): > 100 µM | cadherin staining in melanoma ME115 cells (Melanoma ME 115 cells): absence of cell membrane staining and the appearance of bright intracellular vesicular staining; also recorded: cadherin is localized in intracellular vesicles | effect on melanoma cell adhesion (Melanoma ME 115 cells): disrupts melanoma cell adhesion | IC50 (HMVEC): > 100 µM | IC50 (IAFp2): > 100 µM | IC50 (PC-3): > 100 µM

CC(=O)N[C@H]1CSSC[C@@H](C(N)=O)NC(=O)[C@H](C(C)C)NC(=O)CNC(=O)[C@H](Cc2c[nH]cn2)NC1=O [N-Ac-CHGVC-NH2, reference compound]
IC50 (MDA-MB231): > 100 µM | cadherin staining in melanoma ME115 cells (Melanoma ME 115 cells): displayed cadherin staining all over the cell membrane | IC50 (HMVEC): > 100 µM | IC50 (IAFp2): > 100 µM | IC50 (PC-3): > 100 µM

— patent publication US20030224978A1, “Compounds and methods for modulating apoptosis” (McGill University, priority 1996, published 2003)
